Data set [1] has as its system CYP1A2. In words: CYP induction, CYP1A2. The class given is in vitro ADME.
The test system of data set [2] is CYP3A enzymes. Nature of the data set: In vitro metabolism studies. The class given is in vitro ADME.
Data set [3] has as its system CYP3A4/5. Nature of the data set: CYP inhibition, CYP3A4/5. The class given is in vitro ADME.
Data set [4] deals with CYP2B6. In words: CYP induction, CYP2B6. The data set is classed as in vitro ADME.
Data set [5] deals with CYP2D6 (Homo sapiens (Human), UniProt P10635). Nature of the data set: CYP inhibition, CYP2D6. The class given is in vitro ADME.
Chain of CYP2D6 (P10635 whole entry): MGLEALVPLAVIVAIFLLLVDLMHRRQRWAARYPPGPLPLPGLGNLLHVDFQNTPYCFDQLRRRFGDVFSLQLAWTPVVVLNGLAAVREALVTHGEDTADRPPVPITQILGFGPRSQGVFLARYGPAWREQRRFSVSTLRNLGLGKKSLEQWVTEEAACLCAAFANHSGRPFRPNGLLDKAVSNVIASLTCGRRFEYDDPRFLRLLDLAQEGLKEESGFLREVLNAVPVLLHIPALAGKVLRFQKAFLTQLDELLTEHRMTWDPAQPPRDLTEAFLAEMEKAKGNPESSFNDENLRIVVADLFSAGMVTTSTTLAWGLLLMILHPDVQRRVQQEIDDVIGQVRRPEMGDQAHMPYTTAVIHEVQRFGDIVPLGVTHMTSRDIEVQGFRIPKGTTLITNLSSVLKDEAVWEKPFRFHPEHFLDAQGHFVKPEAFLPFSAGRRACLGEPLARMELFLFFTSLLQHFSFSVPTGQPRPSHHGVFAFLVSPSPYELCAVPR
Data set [6] concerns the target CYP2B6 (Homo sapiens (Human), UniProt P20813). Nature of the data set: CYP inhibition, CYP2B6. The class given is in vitro ADME.
The subject of data set [7] is CYP3A4. Nature of the data set: CYP induction, CYP3A4. The class given is in vitro ADME.
The target in data set [8] is CYP2C9 (Homo sapiens (Human), UniProt P11712). In words: CYP inhibition, CYP2C9. The data set is classed as in vitro ADME.
Chain of CYP2C9 (P11712 whole entry): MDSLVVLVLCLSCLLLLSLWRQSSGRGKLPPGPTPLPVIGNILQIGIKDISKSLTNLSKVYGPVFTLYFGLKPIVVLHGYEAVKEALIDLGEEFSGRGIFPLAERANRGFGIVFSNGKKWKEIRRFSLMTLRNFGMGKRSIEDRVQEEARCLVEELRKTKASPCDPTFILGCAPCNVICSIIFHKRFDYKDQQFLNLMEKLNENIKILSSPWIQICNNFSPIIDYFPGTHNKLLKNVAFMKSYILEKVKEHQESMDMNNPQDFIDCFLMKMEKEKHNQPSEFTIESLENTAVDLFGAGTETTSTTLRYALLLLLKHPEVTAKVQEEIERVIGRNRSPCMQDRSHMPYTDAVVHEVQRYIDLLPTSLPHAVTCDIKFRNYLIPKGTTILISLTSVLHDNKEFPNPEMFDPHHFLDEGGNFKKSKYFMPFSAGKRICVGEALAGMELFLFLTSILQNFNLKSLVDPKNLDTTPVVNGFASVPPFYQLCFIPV
The target of data set [9] is CYP2C8 (Homo sapiens (Human), UniProt P10632). In words: CYP inhibition, CYP2C8. The data set is classed as in vitro ADME.
Chain of CYP2C8 (P10632 whole entry): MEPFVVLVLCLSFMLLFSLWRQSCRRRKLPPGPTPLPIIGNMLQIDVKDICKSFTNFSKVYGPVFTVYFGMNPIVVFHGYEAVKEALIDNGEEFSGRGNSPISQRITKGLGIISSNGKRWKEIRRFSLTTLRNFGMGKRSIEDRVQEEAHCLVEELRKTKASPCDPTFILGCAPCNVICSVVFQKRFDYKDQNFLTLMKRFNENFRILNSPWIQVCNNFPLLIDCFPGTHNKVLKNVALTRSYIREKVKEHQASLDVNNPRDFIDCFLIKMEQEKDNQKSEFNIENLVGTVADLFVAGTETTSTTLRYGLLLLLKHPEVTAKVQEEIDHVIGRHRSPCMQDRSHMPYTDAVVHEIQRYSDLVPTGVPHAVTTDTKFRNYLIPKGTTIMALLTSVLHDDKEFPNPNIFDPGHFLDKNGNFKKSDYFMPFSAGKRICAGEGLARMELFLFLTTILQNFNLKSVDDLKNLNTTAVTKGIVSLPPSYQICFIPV
A short description of data set [10]: Clinical pharmacokinetics of acalabrutinib and its major metabolite. The data set is classed as in vivo, human. The text has this:
The compound of Formula (I) was identified as the major metabolite in plasma with a geometric mean exposure (AUC) approximately 2- to 3-fold higher than the exposure of acalabrutinib.
Acalabrutinib and the major metabolite form a covalent bond with a cysteine residue in the BTK active site, leading to inhibition of BTK enzymatic activity. Acalabrutinib binding with the cysteine residue occurs rapidly and irreversibly and provides high target occupancy at steady state.

Data set [11] addresses CYP1A2 (Homo sapiens (Human), UniProt P05177).
The target in data set [12] is CYP2C19 (Homo sapiens (Human), UniProt P33261). Nature of the data set: CYP inhibition, CYP2C19. The class given is in vitro ADME.
Chain of CYP2C19 (P33261 whole entry): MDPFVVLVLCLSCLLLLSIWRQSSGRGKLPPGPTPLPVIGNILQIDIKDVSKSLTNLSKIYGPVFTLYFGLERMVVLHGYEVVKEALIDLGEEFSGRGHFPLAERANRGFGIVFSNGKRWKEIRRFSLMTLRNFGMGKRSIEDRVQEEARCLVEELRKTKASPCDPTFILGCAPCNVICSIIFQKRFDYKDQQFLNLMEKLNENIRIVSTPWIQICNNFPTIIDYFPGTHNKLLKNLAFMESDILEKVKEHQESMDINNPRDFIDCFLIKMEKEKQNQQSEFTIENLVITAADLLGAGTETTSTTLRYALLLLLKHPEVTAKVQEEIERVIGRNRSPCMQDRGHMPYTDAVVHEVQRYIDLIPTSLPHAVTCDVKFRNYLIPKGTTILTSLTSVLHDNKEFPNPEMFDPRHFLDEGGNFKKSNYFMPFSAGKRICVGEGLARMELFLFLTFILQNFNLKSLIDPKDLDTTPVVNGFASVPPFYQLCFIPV

Chain of CYP1A2 (Homo sapiens (Human), UniProt P05177) (P05177 whole entry): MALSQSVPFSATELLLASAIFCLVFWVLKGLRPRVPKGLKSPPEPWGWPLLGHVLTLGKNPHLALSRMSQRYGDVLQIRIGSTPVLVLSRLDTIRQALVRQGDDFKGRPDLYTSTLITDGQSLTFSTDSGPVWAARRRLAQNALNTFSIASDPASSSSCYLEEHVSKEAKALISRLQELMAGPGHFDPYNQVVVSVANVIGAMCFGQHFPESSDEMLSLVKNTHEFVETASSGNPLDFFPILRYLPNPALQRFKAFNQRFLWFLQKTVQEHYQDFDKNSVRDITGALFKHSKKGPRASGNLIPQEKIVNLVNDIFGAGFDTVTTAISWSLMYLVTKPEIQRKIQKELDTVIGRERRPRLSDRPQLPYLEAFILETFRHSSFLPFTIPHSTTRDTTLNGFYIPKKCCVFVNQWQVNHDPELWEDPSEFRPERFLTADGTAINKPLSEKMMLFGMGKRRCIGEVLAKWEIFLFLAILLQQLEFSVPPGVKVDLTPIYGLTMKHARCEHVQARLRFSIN
Chain of CYP2B6 (Homo sapiens (Human), UniProt P20813) (P20813 whole entry): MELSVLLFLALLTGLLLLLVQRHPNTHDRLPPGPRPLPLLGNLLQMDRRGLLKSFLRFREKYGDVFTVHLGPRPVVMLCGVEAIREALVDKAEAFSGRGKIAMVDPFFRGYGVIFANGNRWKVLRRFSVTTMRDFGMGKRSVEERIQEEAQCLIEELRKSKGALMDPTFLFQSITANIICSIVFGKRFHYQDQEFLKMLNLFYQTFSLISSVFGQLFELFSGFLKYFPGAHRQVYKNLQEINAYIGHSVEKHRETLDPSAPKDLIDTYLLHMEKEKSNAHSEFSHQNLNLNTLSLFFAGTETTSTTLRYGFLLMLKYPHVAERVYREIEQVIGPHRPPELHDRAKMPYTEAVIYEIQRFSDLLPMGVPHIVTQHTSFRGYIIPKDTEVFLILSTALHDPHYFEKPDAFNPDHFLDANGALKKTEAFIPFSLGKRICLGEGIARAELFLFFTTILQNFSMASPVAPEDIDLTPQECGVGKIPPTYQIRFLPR

`CC#CC(=O)N1CCC[C@H]1c1nc(-c2ccc(C(=O)Nc3ccccn3)cc2)c2c(N)nccn12` [acalabrutinib, reference compound]: in [1], the CYP1A2 induction result is on record as “weak inducer”. Further, the metabolic route result in data set [2] is recorded as “predominantly metabolized by CYP3A enzymes”. For the same compound, the CYP3A4/5 inhibition result in data set [3] is recorded as “weak inhibitor”. Moreover, the CYP2B6 induction entry in data set [4] was “weak inducer”. For the same compound, in [5], the CYP2D6 inhibition result is “does not inhibit”. In addition, the CYP2B6 inhibition entry in [6] is reported as “does not inhibit”. Moreover, the CYP3A4 induction entry in data set [7] is listed as “weak inducer”. In addition, the CYP2C9 inhibition entry in data set [8] is listed as “weak inhibitor”. Also, the CYP2C8 inhibition result in data set [9] is listed as “weak inhibitor”. The half-life in [10] (human, in vivo, single oral dose of 100 mg acalabrutinib, read-out: median terminal elimination half-life (t½) (converted)) was 54 min. Further, the “mean apparent oral clearance (CL/F)” value in data set [10] (population pharmacokinetics analysis) came to 159 L/h. Also, in data set [11], the CYP1A2 inhibition entry was “does not inhibit”. Further, the CYP2C19 inhibition result in data set [12] is on record as “does not inhibit”.

These data come from US10858364B2, “Imidazopyrazine inhibitors of Bruton's tyrosine kinase” (Acerta Pharma B.V., priority 2016, dated 2020).
